# ChEMBL document CHEMBL2424636, “Synthesis and anticancer activity evaluation of new 1,2,3-triazole-4-carboxamide derivatives” (2013)
# Legend:
# Format in all cases: functional
# [1] = test system: MDA-MB-468; experiment: Cytotoxicity against human MDA-MB-468 cells assessed as cell growth at 10^-5 M after 48 hrs by SRB assay; details: MDA-MB-468, 48 h, read-out: Activity
# [2] = test system: UO-31; experiment: Cytotoxicity against human UO31 cells assessed as cell growth at 10^-5 M after 48 hrs by SRB assay; details: UO-31, 48 h, read-out: Activity
# [3] = test system: UACC-62; experiment: Cytotoxicity against human UACC62 cells assessed as cell growth at 10^-5 M after 48 hrs by SRB assay; details: UACC-62, 48 h, read-out: Activity
# [4] = test system: A498; experiment: Cytotoxicity against human A498 cells assessed as cell growth at 10^-5 M after 48 hrs by SRB assay; details: A498, 48 h, read-out: Activity
# [5] = test system: RPMI-8226; experiment: Cytotoxicity against human RPMI8226 cells assessed as cell growth at 10^-5 M after 48 hrs by SRB assay; details: RPMI-8226, 48 h, read-out: Activity
# [6] = test system: K562; experiment: Cytotoxicity against human K562 cells assessed as cell growth at 10^-5 M after 48 hrs by SRB assay; details: K562, 48 h, read-out: Activity
# [7] = test system: HOP-92; experiment: Cytotoxicity against human HOP92 cells assessed as cell growth at 10^-5 M after 48 hrs by SRB assay; details: HOP-92, 48 h, read-out: Activity
# [8] = test system: HL-60(TB); experiment: Cytotoxicity against human HL-60(TB) cells assessed as cell growth at 10^-5 M after 48 hrs by SRB assay; details: HL-60, 48 h, read-out: Activity
# [9] = test system: SF-539; experiment: Cytotoxicity against human SF539 cells assessed as cell growth at 10^-5 M after 48 hrs by SRB assay; details: SF-539, 48 h, read-out: Activity
# [10] = test system: MCF7; experiment: Cytotoxicity against human MCF7 cells assessed as cell growth at 10^-5 M after 48 hrs by SRB assay; details: MCF7, 48 h, read-out: Activity
# [11] = test system: SR; experiment: Cytotoxicity against human SR cells assessed as cell growth at 10^-5 M after 48 hrs by SRB assay; details: read-out: Activity
# [12] = test system: PC-3; experiment: Cytotoxicity against human PC3 cells assessed as cell growth at 10^-5 M after 48 hrs by SRB assay; details: PC-3, 48 h, read-out: Activity
# [13] = test system: HOP-62; experiment: Cytotoxicity against human HOP62 cells assessed as cell growth at 10^-5 M after 48 hrs by SRB assay; details: HOP-62, 48 h, read-out: Activity
# [14] = test system: SK-MEL-5; experiment: Cytotoxicity against human SK-MEL-5 cells assessed as cell growth at 10^-5 M after 48 hrs by SRB assay; details: SK-MEL-5, 48 h, read-out: Activity
# [15] = test system: T47D; experiment: Cytotoxicity against human T47D cells assessed as cell growth at 10^-5 M after 48 hrs by SRB assay; details: read-out: Activity
# [16] = Cytotoxicity against human EKVX cells assessed as cell growth at 10^-5 M after 48 hrs by SRB assay; details: read-out: Activity
# [17] = test system: SNB-75; experiment: Cytotoxicity against human SNB75 cells assessed as cell growth at 10^-5 M after 48 hrs by SRB assay; details: SNB-75, 48 h, read-out: Activity
# [18] = test system: NCI-H522; experiment: Cytotoxicity against human NCI-H522 cells assessed as cell growth at 10^-5 M after 48 hrs by SRB assay; details: NCI-H522, 48 h, read-out: Activity
# [19] = test system: CCRF-CEM; experiment: Cytotoxicity against human CCRF-CEM cells assessed as cell growth at 10^-5 M after 48 hrs by SRB assay; details: read-out: Activity
# [20] = test system: U-251; experiment: Cytotoxicity against human U251 cells assessed as cell growth at 10^-5 M after 48 hrs by SRB assay; details: U-251, 48 h, read-out: Activity
# [21] = test system: SF-268; experiment: Cytotoxicity against human SF268 cells assessed as cell growth at 10^-5 M after 48 hrs by SRB assay; details: SF-268, 48 h, read-out: Activity
# [22] = test system: OVCAR-8; experiment: Cytotoxicity against human OVCAR8 cells assessed as cell growth at 10^-5 M after 48 hrs by SRB assay; details: OVCAR-8, 48 h, read-out: Activity
# [23] = test system: MOLT-4; experiment: Cytotoxicity against human MOLT4 cells assessed as cell growth at 10^-5 M after 48 hrs by SRB assay; details: MOLT-4, 48 h, read-out: Activity
# [24] = test system: SNB-75; experiment: Cytotoxicity against human SNB75 cells after 48 hrs by SRB assay; details: SNB-75, 48 h; for TGI: read-out: pTGI (converted)
# [25] = test system: MDA-MB-231; experiment: Cytotoxicity against human MDA-MB-231/ATCC cells after 48 hrs by SRB assay; details: MDA-MB-231, 48 h; for TGI: read-out: pTGI
# [26] = test system: SK-OV-3; experiment: Cytotoxicity against human SKOV3 cells after 48 hrs by SRB assay; details: SK-OV-3, 48 h; for TGI: read-out: pTGI
# [27] = test system: U-251; experiment: Cytotoxicity against human U251 cells after 48 hrs by SRB assay; details: U-251, 48 h; for TGI: read-out: pTGI
# [28] = test system: TK-10; experiment: Cytotoxicity against human TK10 cells after 48 hrs by SRB assay; details: TK-10, 48 h; for TGI: read-out: pTGI
# [29] = test system: RXF 393; experiment: Cytotoxicity against human RXF393 cells after 48 hrs by SRB assay; details: RXF 393, 48 h; for TGI: read-out: pTGI (converted)
# [30] = test system: SF-539; experiment: Cytotoxicity against human SF539 cells after 48 hrs by SRB assay; details: SF-539, 48 h; for TGI: read-out: pTGI
# [31] = test system: 786-0; experiment: Cytotoxicity against human 786-0 cells assessed as cell growth at 10^-5 M after 48 hrs by SRB assay; details: 786-0, 48 h, read-out: Activity
# [32] = test system: Malme-3M; experiment: Cytotoxicity against human MALME-3M cells after 48 hrs by SRB assay; details: for TGI: read-out: pTGI
# [33] = test system: RXF 393; experiment: Cytotoxicity against human RXF393 cells assessed as cell growth at 10^-5 M after 48 hrs by SRB assay; details: RXF 393, 48 h, read-out: Activity
# [34] = test system: OVCAR-4; experiment: Cytotoxicity against human OVCAR4 cells after 48 hrs by SRB assay; details: OVCAR-4, 48 h
# [35] = test system: SF-295; experiment: Cytotoxicity against human SF295 cells after 48 hrs by SRB assay; details: SF-295, 48 h
# [36] = test system: Hs-578T; experiment: Cytotoxicity against human Hs578T cells after 48 hrs by SRB assay
# [37] = test system: SF-268; experiment: Cytotoxicity against human SF268 cells after 48 hrs by SRB assay; details: SF-268, 48 h
# [38] = test system: SR; experiment: Cytotoxicity against human SR cells after 48 hrs by SRB assay
# [39] = test system: K562; experiment: Cytotoxicity against human K562 cells after 48 hrs by SRB assay; details: K562, 48 h
# [40] = test system: HOP-92; experiment: Cytotoxicity against human HOP92 cells after 48 hrs by SRB assay; details: HOP-92, 48 h
smiles,measurement,setting,value
Cc1c(C(=O)NCc2ccco2)nnn1-c1ccc2noc(-c3ccc(Cl)cc3)c2c1,growth at 10 µM,[1],68%
same,growth at 10 µM,[2],52%
same,growth at 10 µM,[3],64.2%
same,growth at 10 µM,[4],56.2%
same,growth at 10 µM,[5],65.3%
COc1ccc(NC(=O)c2nnn(-c3cccc(C(F)(F)F)c3)c2N)c(OC)c1,growth at 10 µM,[6],71.7%
same,growth at 10 µM,[7],77.3%
same,growth at 10 µM,[8],78.4%
Cc1cc(C)cc(-n2nnc(C(=O)NC(C)C)c2N)c1,growth at 10 µM,[9],78.9%
same,growth at 10 µM,[10],83.3%
same,growth at 10 µM,[11],83.6%
CCc1c(C(=O)Nc2ccccc2Cl)nnn1-c1ccc2noc(-c3ccccc3)c2c1,growth at 10 µM,[7],58.4%
same,growth at 10 µM,[12],60.6%
same,growth at 10 µM,[13],74.2%
same,growth at 10 µM,[5],76.2%
Cc1ccccc1-n1nnc(C(=O)Nc2ccc(Cl)cc2Cl)c1N,growth at 10 µM,[14],55.9%
same,growth at 10 µM,[15],60.9%
same,growth at 10 µM,[16],56.7%
same,growth at 10 µM,[5],59.6%
CCc1nnc(NC(=O)c2nnn(-c3ccc(C)cc3)c2N)s1,growth at 10 µM,[15],77.4%
same,growth at 10 µM,[17],76.2%
same,growth at 10 µM,[7],71.5%
CCc1c(C(=O)Nc2ccc(Cl)cc2)nnn1-c1ccc2noc(-c3ccccc3)c2c1,growth at 10 µM,[18],88.9%
same,growth at 10 µM,[2],67.8%
same,growth at 10 µM,[3],83.6%
same,growth at 10 µM,[11],85.1%
Cc1c(C(=O)Nc2cccc(C(F)(F)F)c2)nnn1-c1ccc2noc(-c3ccccc3)c2c1,growth at 10 µM,[6],89.8%
same,growth at 10 µM,[2],78.5%
Nc1c(C(=O)Nc2ccc(F)cc2)nnn1-c1cccc(C(F)(F)F)c1,growth at 10 µM,[10],82.5%
same,growth at 10 µM,[4],81.7%
same,growth at 10 µM,[5],81.4%
Nc1c(C(=O)NC2CCCC2)nnn1-c1cccc(C(F)(F)F)c1,growth at 10 µM,[18],87%
same,growth at 10 µM,[4],89.1%
CCc1c(C(=O)Nc2cccc(Cl)c2)nnn1-c1ccc2noc(-c3ccccc3)c2c1,growth at 10 µM,[2],82.6%
same,growth at 10 µM,[10],81.7%
same,growth at 10 µM,[11],77.6%
Cc1ccc(-n2nnc(C(=O)Nc3ncc(Cc4cccc(Cl)c4)s3)c2C)cc1,growth at 10 µM,[19],63.3%
same,growth at 10 µM,[2],70.8%
same,growth at 10 µM,[3],76.6%
same,growth at 10 µM,[16],74.9%
same,growth at 10 µM,[5],62.7%
COc1ccccc1-n1nnc(C(=O)Nc2ncc(Cc3ccccc3)s2)c1C,growth at 10 µM,[17],53.9%
same,growth at 10 µM,[20],75.6%
same,growth at 10 µM,[2],73.3%
same,growth at 10 µM,[21],75.5%
same,growth at 10 µM,[22],68%
same,growth at 10 µM,[13],54.8%
COc1ccc(NC(=O)c2nnn(-c3ccc(C)cc3)c2N)cc1,growth at 10 µM,[7],69.4%
same,growth at 10 µM,[12],74.3%
Cc1ccc(-n2nnc(C(=O)NCc3ccccc3)c2N)cc1,growth at 10 µM,[11],68.2%
same,growth at 10 µM,[23],75.8%
Nc1c(C(=O)c2c[nH]c3ccccc23)nnn1-c1ccccc1,growth at 10 µM,[1],78.5%
same,growth at 10 µM,[10],73.7%
COc1ccc(NC(=O)c2nnn(-c3ccc(F)cc3)c2N)c(OC)c1,growth at 10 µM,[9],-4.64%
same,growth at 10 µM,[15],-2.61%
same,growth at 10 µM,[17],-27.3%
same,GI50,[24],3.89 µM
same,TGI,[24],> 100 µM
same,growth at 10 µM,[20],-9.89%
same,GI50,[25],6.46 µM
same,TGI,[25],> 100 µM
same,GI50,[26],13.8 µM
same,TGI,[26],> 100 µM
same,GI50,[27],11.7 µM
same,TGI,[27],> 100 µM
same,GI50,[28],30.2 µM
same,TGI,[28],> 100 µM
same,GI50,[29],37.2 µM
same,TGI,[29],> 100 µM
same,GI50,[30],17.8 µM
same,TGI,[30],> 100 µM
same,growth at 10 µM,[31],-1.64%
same,GI50,[32],12.9 µM
same,TGI,[32],> 100 µM
Cc1cccc(C)c1NC(=O)c1nnn(-c2ccc(F)cc2)c1N,growth at 10 µM,[19],64%
same,growth at 10 µM,[7],76.8%
same,growth at 10 µM,[16],75.9%
same,growth at 10 µM,[11],66.7%
same,growth at 10 µM,[4],78.7%
Cc1ccc(-n2nnc(C(=O)Nc3cc(Cl)ccc3Cl)c2N)cc1,growth at 10 µM,[33],-13.4%
same,GI50,[34],1.62 µM
same,TGI,[34]; read-out: pTGI,> 100 µM
same,GI50,[35],5.01 µM
same,TGI,[35]; read-out: pTGI,> 100 µM
same,growth at 10 µM,[17],1.32%
same,GI50,[24],1.38 µM
same,TGI,[24],6.03 µM
same,growth at 10 µM,[7],-3.42%
same,GI50,[36],4.47 µM
same,TGI,[36]; read-out: pTGI,> 100 µM
same,GI50,[25],6.17 µM
same,TGI,[25],> 100 µM
same,growth at 10 µM,[2],-7.62%
same,GI50,[26],2.82 µM
same,TGI,[26],> 100 µM
same,GI50,[27],6.03 µM
same,TGI,[27],> 100 µM
same,GI50,[37],5.5 µM
same,TGI,[37]; read-out: pTGI,> 100 µM
same,GI50,[28],5.89 µM
same,TGI,[28],> 100 µM
same,GI50,[29],3.47 µM
same,TGI,[29],50.1 µM
same,GI50,[30],4.27 µM
same,TGI,[30],> 100 µM
same,GI50,[38],2.51 µM
same,TGI,[38]; read-out: pTGI (converted),60.3 µM
same,growth at 10 µM,[31],2.96%
same,GI50,[39],7.76 µM
same,TGI,[39]; read-out: pTGI,> 100 µM
same,GI50,[32],2.45 µM
same,TGI,[32],> 100 µM
same,GI50,[40],0.589 µM
same,TGI,[40]; read-out: pTGI (converted),5.89 µM
CCc1ccc(NC(=O)c2nnn(-c3ccc(OC)cc3)c2N)cc1,growth at 10 µM,[14],56.3%
same,growth at 10 µM,[1],62.6%
same,growth at 10 µM,[5],60.9%
